Test results published in patent US5705649A, “Protein staining compositions and methods” (Promega Corporation, priority 1995, dated 1998).

Tests used:
[1] = Spectral analyses of Coomassie Blue R and Promega Green 1, 2, 3; type: physicochemical
Procedure: The three solutions of Promega Green 1, 2, and 3, from examples 1, 2 and 3 respectively, were diluted approximately 500 fold into a 1:1 solution of methanol:water. The spectra of the resulting solutions and of a 12 μg/ml solution of Coomassie Blue R (in 1:1 methanol:water) were recorded from 700 to 340 nm versus 1:1 methanol:water. […] All of the derivatives gave essentially identical spectra; however, the maximal absorbance of the diluted Promega Green i was about twice that seen for the other derivatives. The derivatives had two peak absorptions in the region of the spectrum scanned, a major peak at around 630 nm and a second peak at around 440 nm. The following absorbances were recorded at the peaks near 630 nm for the three Promega Green dye solutions (diluted 1:500 in 1:1 methanol:water): […]

[2] = test system: bovine serum albumin (BSA); assay: Effect of solution pH on absorption in presence and absence of protein; type: physicochemical
Procedure: The effect of solution pH on the absorption of Promega Green 1 in the presence and absence of added protein was studied by dilution of Promega Green 1 solution at a ratio of 1:1000 (v/v) into various solutions containing 0 or 100 μg of protein (bovine serum albumin (BSA)) per ml of liquid. The solutions tested were highly acidic (1N HCl), moderately acidic (2% acetic acid), weakly acidic (50 mM ammonium acetate pH 4.0), weakly basic (50 mM ammonium bicarbonate pH 7.8), and strongly basic (500 mM Tris base). The absorption spectra of the solutions were measured from […] and the peak absorbances are reported below.

[3] = test system: protein (BSA); assay: Sensitive solution protein quantitation assay; parameters: species or system bovine; details: 0.5M tris base, 3 hours
Procedure: In order to conclusively determine a format for the sensitive quantitation of protein in solution using Promega Green 1, Promega Green 1 stock solution was diluted at ratios of 1:250 (v/v) and 1:1000 (v/v) into 0.5M tris base containing 0, 5, 10, 20, 40, 60, 80, and 100 μg protein (BSA) per ml of solution. […]

[4] = test system: bovine serum albumin; assay: Quantitation of proteins separated by SDS-PAGE (dye extracted from excised bands); details: 66 Kd
Procedure: (§1) The samples used were prepared with Promega Mid-Range Molecular Weight Markers solution (Promega Corp., Madison, Wis., USA, Catalog No. V5231) (referred to hereinafter as "Promega Mid-Range [Molecular Weight] Markers or Standards") diluted into Sample Buffer. Promega Mid-Range Molecular Weight Markers is a solution, at about 0.5 mg/ml, of each of the following proteins as a molecular weight standard: phosphorylase B (apparent molecular weight: 97,400 daltons ("d")), bovine serum albumin (apparent molecular weight: 66,200 d), glutamate dehydrogenase (apparent molecular weight: 55,000 d), ovalbumin (apparent molecular weight: 42,700 d), aldolase (apparent molecular weight: 40,000 d), carbonic anhydrase (apparent molecular weight: 31,000 d), soybean trypsin inhibitor (apparent molecular weight: 21,500 d), and lysozyme (apparent molecular weight: 14,400 d). […] The samples were heated to 95° C. for 10 minutes with occasional vortex treatment in 1.5 ml Eppendorf centrifuge tubes and then centrifuged in an Eppendorf centrifuge for 20 seconds to ensure that the protein in the sample was denatured and well mixed.
(§2) A 10% SDS-PAGE gel was made as described in the Example 5. Promega Mid-Range Molecular Weight Standards were diluted into loading buffer to produce solutions containing 2.0, 1.0, 0.5, and 0.25 μg of protein per band in 5 μl of solution. Duplicate 5 μl solutions of each of these solutions were loaded into 1 of the 10 sample wells in the gel after the solutions were heated at 95° C. for 10 minutes. The gel was then electrophoresed at 160 V until the running dye just eluted from the bottom of the gel. The gel was destained, and signal from stained protein enhanced, for 90 minutes in 30% methanol, 4% acetic acid.
(§3) One of the pair of duplicate bands for the 97.4, 66.2, 55.0 and 42.7 kilodalton standards from the lanes containing 2.0, 1.0, 0.5, and 0.25 μg of protein per band were excised with a razor blade as were two control gel segments from regions of the gel not containing protein. The excised segments were placed in individual 1.5 ml Eppendorf tubes containing 2% SDS and allowed to incubate at room temperature for 72 hours. After this time, the solutions were removed from the extracted segments and acetic acid was added to 2% (v/v) final concentration. The absorption of the solutions at […] was then measured.

[5] = test system: glutamate dehydrogenase; assay: as above; details: 55 Kd
Procedure: as §1, §2, §3

[6] = test system: ovalbumin; assay: as above; details: 43 Kd
Procedure: as §1, §2, §3

[7] = test system: phosphorylase B; assay: as above; details: 97 kD
Procedure: as §1, §2, §3

[8] = moderately acidic (2% acetic acid), protein absent
[9] = moderately acidic (2% acetic acid), protein present (100 μg/ml BSA)
[10] = strongly acidic (1N HCl), protein absent
[11] = strongly acidic (1N HCl), protein present (100 μg/ml BSA)
[12] = strongly basic (500 mM Tris base), protein absent
[13] = strongly basic (500 mM Tris base), protein present (100 μg/ml BSA)
[14] = weakly acidic (50 mM ammonium acetate pH 4.0), protein absent
[15] = weakly acidic (50 mM ammonium acetate pH 4.0), protein present (100 μg/ml BSA)
[16] = weakly basic (50 mM ammonium bicarbonate pH 7.8), protein absent
[17] = weakly basic (50 mM ammonium bicarbonate pH 7.8), protein present (100 μg/ml BSA)

## CCCCCCCC(=O)N(c1ccc(OCC)cc1)c1ccc(C(=C2C=CC(=[N+](CC)Cc3cccc(S(=O)(=O)[O-])c3)C=C2)c2ccc(N(CC)Cc3cccc(S(=O)(=O)O)c3)cc2)cc1 [Promega Green 1]
[1]; diluted 1:500 in 1:1 methanol:water
  Absorbance at the peak near 630 nm: 1.66
[1]; diluted approximately 500 fold
  maximal absorbance relative to the other derivatives: about twice
[2]; [8]
  ABS (peak absorbance): 0.83
  absorption max: 631 nm
[2]; [9]
  ABS (peak absorbance): 0.98
  absorption max: 635 nm
[2]; [10]
  ABS (peak absorbance): 0.27
  absorption max: 649 nm
[2]; [11]
  ABS (peak absorbance): 0.39
  absorption max: 641 nm
[2]; [12]
  ABS (peak absorbance): 0.22
  absorption max: 637 nm
[2]; [13]
  ABS (peak absorbance): 0.128
  absorption max: 637 nm
[2]; [14]
  ABS (peak absorbance): 0.49
  absorption max: 636 nm
[2]; [15]
  ABS (peak absorbance): 0.25
  absorption max: 638 nm
[2]; [16]
  ABS (peak absorbance): 0.49
  absorption max: 636 nm
[2]; [17]
  ABS (peak absorbance): 0.26
  absorption max: 637 nm
[3]; dye 1:250, protein 0 μg/ml
  Absorption: 0.543
[3]; dye 1:250, protein 5 μg/ml
  Absorption: 0.515
[3]; dye 1:250, protein 10 μg/ml
  Absorption: 0.472
[3]; dye 1:250, protein 20 μg/ml
  Absorption: 0.427
[3]; dye 1:250, protein 40 μg/ml
  Absorption: 0.386
[3]; dye 1:250, protein 60 μg/ml
  Absorption: 0.358
[3]; dye 1:250, protein 80 μg/ml
  Absorption: 0.342
[3]; dye 1:250, protein 100 μg/ml
  Absorption: 0.317
[3]; dye 1:1000, protein 0 μg/ml
  Absorption: 0.079
[3]; dye 1:1000, protein 5 μg/ml
  Absorption: 0.069
[3]; dye 1:1000, protein 10 μg/ml
  Absorption: 0.059
[3]; dye 1:1000, protein 20 μg/ml
  Absorption: 0.051
[3]; dye 1:1000, protein 40 μg/ml
  Absorption: 0.048
[3]; dye 1:1000, protein 60 μg/ml
  Absorption: 0.047
[3]; dye 1:1000, protein 80 μg/ml
  Absorption: 0.044
[3]; dye 1:1000, protein 100 μg/ml
  Absorption: 0.043
[4]; 0.25 μg/band
  Absorbance at 630 nm: .052
[4]; 0.50 μg/band
  Absorbance at 630 nm: .074
[4]; 1.00 μg/band
  Absorbance at 630 nm: .138
[4]; 2.00 μg/band
  Absorbance at 630 nm: .192
[5]; 0.25 μg/band
  Absorbance at 630 nm: .053
[5]; 0.50 μg/band
  Absorbance at 630 nm: .063
[5]; 1.00 μg/band
  Absorbance at 630 nm: .105
[5]; 2.00 μg/band
  Absorbance at 630 nm: .138
[6]; 0.25 μg/band
  Absorbance at 630 nm: .042
[6]; 0.50 μg/band
  Absorbance at 630 nm: .064
[6]; 1.00 μg/band
  Absorbance at 630 nm: .126
[6]; 2.00 μg/band
  Absorbance at 630 nm: .195
[7]; 0.25 μg/band
  Absorbance at 630 nm: .032
[7]; 0.50 μg/band
  Absorbance at 630 nm: .053
[7]; 1.00 μg/band
  Absorbance at 630 nm: .083
[7]; 2.00 μg/band
  Absorbance at 630 nm: .128
